From patent US12391737B2, “Soluble NPY2 receptor agonists” (Boehringer Ingelheim International GmbH, priority 2020, dated 2025) come the findings set out here.

In series [1] the target is T1, Human Neuropeptide Y2 Receptor (Homo sapiens, UniProt P49146).
T1 construct: purchased CHEMICON HTS066M
T1 sequence (P49146 1-381): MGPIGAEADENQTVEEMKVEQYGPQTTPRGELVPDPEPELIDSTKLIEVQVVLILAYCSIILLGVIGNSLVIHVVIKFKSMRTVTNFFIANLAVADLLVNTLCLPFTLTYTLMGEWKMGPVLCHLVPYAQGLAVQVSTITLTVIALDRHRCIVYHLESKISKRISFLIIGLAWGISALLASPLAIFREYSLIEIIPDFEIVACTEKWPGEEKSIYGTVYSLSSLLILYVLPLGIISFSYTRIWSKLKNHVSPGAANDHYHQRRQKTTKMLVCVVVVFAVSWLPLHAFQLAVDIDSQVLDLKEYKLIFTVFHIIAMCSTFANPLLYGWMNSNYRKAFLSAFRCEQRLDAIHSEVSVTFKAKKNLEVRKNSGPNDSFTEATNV
In words: Radioligand binding competition assay (RLB). Particulars: Table 3, 125I-PYY(1-36) competition; read-out: Ki. The method in brief: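 Competition binding used membranes expressing the receptor (0.5 μg protein/well) in 50 mM HEPES, 5 mM MgCl2, 1 mM CaCl2, pH 7.4 with 0.2% ovalbumin, incubated 2 h at room temperature with shaking. Bound radioligand was collected by filtration onto PEI-soaked GF/C filters and counted; IC50 from nonlinear sigmoidal fits.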

A further series in a line: Solubility determination. The note with it: for Sol6: pH 6; for Sol7: pH 7. The method in brief:
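Solubility is derived from the ratio of reversed-phase peak areas, filtered sample over a control dissolved at 1 mg/ml in 50% acetonitrile. Peptides are agitated for 2 hours at room temperature in 0.1 M sodium diphosphate at pH 6.4 or 7.0, aiming at 10 mg/ml.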

Series [2] concerns the target T2, human NPY2 receptor (hY2R) (Homo sapiens, UniProt P49146).
T2 sequence (P49146 1-381): T1 sequence (P49146 1-381)
Nature of the series: HTRF cAMP Gi assay, hY2R. (In general: Time-resolved FRET reads energy transfer from a long-lived donor to a nearby acceptor.)
Description: The Homogenous Time Resolved fluorescence (HTRF) technology optimized for Gi coupled receptors has thoroughly been described in Cisbio cAMP Gi kit manual. Briefly, the production of intracellular cAMP will generate a competition between unlabeled cAMP and exogenously added d2-cAMP for anti-cAMP antibodies conjugated to cryptate. CHO-K1 cells stably expressing the human NPY1, NPY2, NPY4 and NPY5 receptors were used with the cells brought to life from a frozen stock immediately before assay performance. 2000 cells per well were applied for all four NPY receptor subtype assays. A 384-well format was used applying a total volume of 20 μl using 5 μl cells, 2.5 μl peptide agonist, 2.5 μl forskolin and 5 μl of each of the fluorophores. […] Concentration-response evaluation of compounds was performed with 11 concentrations of agonist peptides (covering 3 decades). EC50 values were calculated by nonlinear regression using sigmoid concentration-response with variable slope.

Series [3] deals with T3, human NPY5 receptor (hY5R) (Homo sapiens, UniProt Q15761).
T3 sequence (Q15761 1-445): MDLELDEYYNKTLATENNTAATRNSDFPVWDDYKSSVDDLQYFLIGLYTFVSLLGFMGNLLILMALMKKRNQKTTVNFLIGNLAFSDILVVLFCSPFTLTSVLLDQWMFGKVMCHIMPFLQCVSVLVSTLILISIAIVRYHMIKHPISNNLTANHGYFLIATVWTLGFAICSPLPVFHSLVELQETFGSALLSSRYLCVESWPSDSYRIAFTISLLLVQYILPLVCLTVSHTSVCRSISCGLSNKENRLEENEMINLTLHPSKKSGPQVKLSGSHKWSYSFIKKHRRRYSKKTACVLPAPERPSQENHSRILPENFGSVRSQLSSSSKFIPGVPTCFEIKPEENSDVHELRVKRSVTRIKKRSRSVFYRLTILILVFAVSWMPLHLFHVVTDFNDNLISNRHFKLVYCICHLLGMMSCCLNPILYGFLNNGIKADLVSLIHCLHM
In words: HTRF cAMP Gi assay, hY5R.

Series [4] has as its target T4, human NPY1 receptor (hY1R) (Homo sapiens, UniProt P25929).
T4 construct: expressed in transfected cells; host or cells: CHO-K1
T4 sequence (P25929 1-384): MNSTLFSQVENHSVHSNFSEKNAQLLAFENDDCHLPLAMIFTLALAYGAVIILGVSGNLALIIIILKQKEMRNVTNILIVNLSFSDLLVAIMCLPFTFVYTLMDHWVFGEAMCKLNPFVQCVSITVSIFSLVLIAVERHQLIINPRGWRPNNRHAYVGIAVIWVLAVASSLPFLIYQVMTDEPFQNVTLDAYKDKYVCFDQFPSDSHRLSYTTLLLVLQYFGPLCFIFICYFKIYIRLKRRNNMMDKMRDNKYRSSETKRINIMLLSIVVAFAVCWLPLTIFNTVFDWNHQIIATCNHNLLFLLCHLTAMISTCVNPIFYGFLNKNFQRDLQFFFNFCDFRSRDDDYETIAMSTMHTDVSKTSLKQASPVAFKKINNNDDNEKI
Nature of the series: HTRF cAMP Gi assay, hY1R. The note with it: CHO-K1 cells. The series is classed as cell-based.

In series [5] the target is T5, human NPY4 receptor (hY4R) (Homo sapiens, UniProt P50391).
T5 construct: expressed in transfected cells; host or cells: CHO-K1
T5 sequence (P50391 whole entry): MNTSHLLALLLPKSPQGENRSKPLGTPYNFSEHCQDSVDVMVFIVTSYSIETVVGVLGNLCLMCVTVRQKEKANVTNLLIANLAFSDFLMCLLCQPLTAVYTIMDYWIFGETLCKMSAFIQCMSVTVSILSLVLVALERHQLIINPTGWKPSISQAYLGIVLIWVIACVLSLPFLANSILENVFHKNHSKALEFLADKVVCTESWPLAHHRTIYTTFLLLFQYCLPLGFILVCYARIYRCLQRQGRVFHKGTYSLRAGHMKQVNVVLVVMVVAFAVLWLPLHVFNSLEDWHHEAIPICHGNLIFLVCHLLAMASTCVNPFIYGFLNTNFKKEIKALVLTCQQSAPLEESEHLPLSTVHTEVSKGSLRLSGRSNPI
In words: HTRF cAMP Gi assay, hY4R. The class given is cell-based. Particulars: CHO-K1 cells.

pEC50, pKi: −log10 of the molar value.

One may read the pKi as the Ki on a negative log10 scale, so that one unit is a factor of ten. The term pEC50 denotes the negative decadic logarithm of the EC50, by convention in mol/L.

As for `CC(C)CC(=O)N[C@@H](C)C(=O)N1CCC[C@H]1C(=O)N[C@@H](CCC(=O)O)C(=O)N[C@@H](CCCCNC(=O)CCCCCNC(=O)CC[C@H](NC(=O)CCCCCCCCCCCCCCCCC(=O)O)C(=O)O)C(=O)N1CCC[C@H]1C(=O)N1CCC[C@H]1C(=O)N[C@@H](CCC(=O)O)C(=O)N[C@@H](CC(=O)O)C(=O)N[C@@H](C)C(=O)N[C@@H](CO)C(=O)N1CCC[C@H]1C(=O)N[C@@H](CCC(=O)O)C(=O)N[C@@H](CCC(=O)O)C(=O)N[C@@H](CC(C)C)C(=O)N[C@@H](CCC(N)=O)C(=O)N[C@@H](CCCNC(=N)N)C(=O)N[C@@H](Cc1ccc(O)cc1)C(=O)N[C@@H](Cc1ccc(O)cc1)C(=O)N[C@H](C(=O)N[C@@H](CO)C(=O)N[C@@H](CC(C)C)C(=O)N[C@@H](CCCNC(=N)N)C(=O)N[C@@H](Cc1c[nH]cn1)C(=O)N[C@@H](Cc1ccc(O)cc1)C(=O)N[C@@H](Cc1ccc(O)cc1)C(=O)N[C@@H](CC(N)=O)C(=O)N[C@@H](Cc1c[nH]c2ccccc12)C(=O)N[C@@H](CC(C)C)C(=O)N[C@H](C(=O)N[C@@H](CCCNC(=N)N)C(=O)N[C@@H](CCC(N)=O)C(=O)N[C@@H](CCCNC(=N)N)C(=O)N[C@@H](Cc1ccc(O)cc1)C(N)=O)[C@@H](C)O)C(C)C` [Compound 14, N{alpha-4}-(3-methylbutanoyl)-N{epsilon-7}-(6-[(4S)-4-carboxy-4-(17-carboxyheptadecanamido)butanamido]hexanoyl)-[4A,7K,9P,18Q,22V,28Y,30W,31L]-hPYY(4-36)], the pKi in series [1] was 8.89. Moreover, in “Solubility determination”, the “Sol6” value came to 9.3 mg/mL and the “Sol7” value stood at 8.4 mg/mL. Also, the pEC50 in series [2] is 10.07. In series [3], this molecule had a negative logarithm of the EC50 (pEC50) of under 5.30.
In the same order, the values of `CC(C)CC(=O)N[C@@H](C)C(=O)N1CCC[C@H]1C(=O)N[C@@H](CCC(=O)O)C(=O)N[C@@H](CCCCNC(=O)CCCCCNC(=O)CC[C@H](NC(=O)CCCCCCCCCCCCCCCCC(=O)O)C(=O)O)C(=O)N1CCC[C@H]1C(=O)N[C@@H](CCC(=O)O)C(=O)N[C@@H](C)C(=O)N[C@@H](CC(=O)O)C(=O)N[C@@H](C)C(=O)N[C@@H](CCC(=O)O)C(=O)N1CCC[C@H]1C(=O)N[C@@H](CCC(=O)O)C(=O)N[C@@H](CCC(=O)O)C(=O)N[C@@H](CC(C)C)C(=O)N[C@@H](CCC(N)=O)C(=O)N[C@@H](CCCNC(=N)N)C(=O)N[C@@H](Cc1ccc(O)cc1)C(=O)N[C@@H](Cc1ccc(O)cc1)C(=O)N[C@H](C(=O)N[C@@H](CO)C(=O)N[C@@H](CC(C)C)C(=O)N[C@@H](CCCNC(=N)N)C(=O)N[C@@H](Cc1c[nH]cn1)C(=O)N[C@@H](Cc1ccc(O)cc1)C(=O)N[C@@H](Cc1ccc(O)cc1)C(=O)N[C@@H](CC(N)=O)C(=O)N[C@@H](Cc1c[nH]c2ccccc12)C(=O)N[C@@H](CC(C)C)C(=O)N[C@H](C(=O)N[C@@H](CCCNC(=N)N)C(=O)N[C@@H](CCC(N)=O)C(=O)N[C@@H](CCCNC(=N)N)C(=O)N[C@@H](Cc1ccc(O)cc1)C(N)=O)[C@@H](C)O)C(C)C` [Compound 72, N{alpha-4}-(3-methylbutanoyl)-N{epsilon-7}-(6-[(4S)-4-carboxy-4-(17-carboxyheptadecanamido)butanamido]hexanoyl)-[4A,7K,9E,10A,13E,18Q,22V,28Y,30W,31L]-hPYY(4-36)] are 8.55, 9.0 mg/mL, 9.2 mg/mL, 9.71 and under 5.30.
For the molecule `CC[C@H](C)[C@H](NC(=O)[C@H](CCC(=O)O)NC(=O)[C@H](CCC(=O)O)NC(=O)[C@@H]1CCCN1C(=O)[C@@H](NC(=O)[C@H](C)NC(=O)[C@H](CC(=O)O)NC(=O)[C@H](C)NC(=O)[C@H](CCC(=O)O)NC(=O)[C@@H]1CCCN1C(=O)[C@H](CCCCNC(=O)CCCCCNC(=O)CC[C@H](NC(=O)CCCCCCCCCCCCCCCCC(=O)O)C(=O)O)NC(=O)[C@H](CCC(=O)O)NC(=O)[C@@H]1CCCN1C(=O)[C@H](C)NC(=O)CC(C)C)[C@@H](C)O)C(=O)N[C@@H](CCC(N)=O)C(=O)N[C@@H](CCCNC(=N)N)C(=O)N[C@@H](Cc1ccc(O)cc1)C(=O)N[C@@H](Cc1ccc(O)cc1)C(=O)N[C@H](C(=O)N[C@@H](C)C(=O)N[C@@H](CC(C)C)C(=O)N[C@@H](CCCNC(=N)N)C(=O)N[C@@H](Cc1c[nH]cn1)C(=O)N[C@@H](Cc1ccc(O)cc1)C(=O)N[C@@H](Cc1ccc(O)cc1)C(=O)N[C@@H](CC(N)=O)C(=O)N[C@@H](Cc1c[nH]c2ccccc12)C(=O)N[C@@H](CC(C)C)C(=O)N[C@H](C(=O)N[C@@H](CCCNC(=N)N)C(=O)N[C@@H](CCC(N)=O)C(=O)N[C@@H](CCCNC(=N)N)C(=O)N[C@@H](Cc1ccc(O)cc1)C(N)=O)[C@@H](C)O)C(C)C` [Compound 184, N{alpha-4}-(3-methylbutanoyl)-N{epsilon-7}-(6-[(4S)-4-carboxy-4-(17-carboxyheptadecanamido)butanamido]hexanoyl)-[4A,7K,9E,10A,13T,17I,18Q,22V,23A,28Y,30W,31L]-hPYY(4-36)], the negative-log Ki (pKi) in series [1] was 9.19. Also, the pEC50 in series [4], in series [5] and in series [3] was under 5.30 throughout. Also, the “Sol6” value in “Solubility determination” was 9.1 mg/mL. Also, the “Sol7” value in “Solubility determination” amounted to 9.1 mg/mL.
With `CC[C@H](C)[C@H](NC(=O)[C@H](CCC(=O)O)NC(=O)[C@H](CCC(=O)O)NC(=O)[C@@H]1CCCN1C(=O)[C@H](CO)NC(=O)[C@H](C)NC(=O)[C@H](CCC(=O)O)NC(=O)[C@H](CCC(=O)O)NC(=O)[C@H](CCC(=O)O)NC(=O)[C@@H]1CCCN1C(=O)[C@H](CCCCNC(=O)CCCCCNC(=O)CC[C@H](NC(=O)CCCCCCCCCCCCCCCCC(=O)O)C(=O)O)NC(=O)[C@H](CCC(=O)O)NC(=O)[C@@H]1CCCN1C(=O)[C@H](C)NC(=O)CC(C)C)C(=O)N[C@@H](CCC(N)=O)C(=O)N[C@@H](CCCNC(=N)N)C(=O)N[C@@H](Cc1ccc(O)cc1)C(=O)N[C@@H](Cc1ccc(O)cc1)C(=O)N[C@H](C(=O)N[C@@H](CO)C(=O)N[C@@H](CC(C)C)C(=O)N[C@@H](CCCNC(=N)N)C(=O)N[C@@H](Cc1c[nH]cn1)C(=O)N[C@@H](Cc1ccc(O)cc1)C(=O)N[C@@H](Cc1ccc(O)cc1)C(=O)N[C@@H](CC(N)=O)C(=O)N[C@@H](Cc1c[nH]c2ccccc12)C(=O)N[C@@H](CC(C)C)C(=O)N[C@H](C(=O)N[C@@H](CCCNC(=N)N)C(=O)N[C@@H](CCC(N)=O)C(=O)N[C@@H](CCCNC(=N)N)C(=O)N[C@@H](Cc1ccc(O)cc1)C(N)=O)[C@@H](C)O)C(C)C` [Compound 193, N{alpha-4}-(3-methylbutanoyl)-N{epsilon-7}-(6-[(4S)-4-carboxy-4-(17-carboxyheptadecanamido)butanamido]hexanoyl)-[4A,7K,9E,11E,17I,18Q,22V,28Y,30W,31L]-hPYY(4-36)], the negative-log Ki (pKi) in series [1] was 8.47. In addition, the negative logarithm of the EC50 (pEC50) in series [4], in series [5] and in series [3] was under 5.30 in each case. In the series “Solubility determination”, the “Sol6” value was 8.9 mg/mL. In “Solubility determination”, the “Sol7” value was determined as 9.1 mg/mL.
